Results as given in patent publication US20260357222A1, “GROWTH-BASED SELECTION PLATFORM FOR NONCANONICAL COFACTOR OXIDIZING ENZYMES” (The Regents of the University of California, priority 2022, published 2026).
Where a chain is given by its changes, count along the chain named.

Legend:
[1] = molecular target: T1, Lactobacillus pentosus NADH oxidase (Lp Nox), wild type, SEQ ID NO:1 (Lactiplantibacillus pentosus, UniProt A0A0U3FIG2); assay: Lp Nox enzymatic kinetics, cofactor oxidation at 340 nm, wild type; type: biochemical; settings: role: cofactor, 50 mM Tris-HCl pH 7.0, 37 °C
T1 sequence (A0A0U3FIG2 1-450): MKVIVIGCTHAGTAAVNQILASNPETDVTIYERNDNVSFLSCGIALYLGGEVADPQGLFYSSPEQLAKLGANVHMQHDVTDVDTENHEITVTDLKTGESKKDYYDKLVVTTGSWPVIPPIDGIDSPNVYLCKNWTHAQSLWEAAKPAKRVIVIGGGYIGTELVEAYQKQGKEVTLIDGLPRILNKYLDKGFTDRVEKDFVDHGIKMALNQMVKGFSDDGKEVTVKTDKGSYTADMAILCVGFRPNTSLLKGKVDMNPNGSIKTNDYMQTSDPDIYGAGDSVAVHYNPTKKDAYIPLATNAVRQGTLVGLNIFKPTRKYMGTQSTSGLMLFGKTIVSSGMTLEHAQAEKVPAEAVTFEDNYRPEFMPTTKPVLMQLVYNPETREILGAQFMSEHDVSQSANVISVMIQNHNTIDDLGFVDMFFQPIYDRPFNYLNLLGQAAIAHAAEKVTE
Protocol: (§1) Protein Expression and Purification. Lp Nox wild type or variants (see Table 1) are expressed with E. coli BL21 (DE3) with plasmids inoculated in 2× YT media with 200 mg L^−1 ampicillin. Expression was carried out by inoculation of 20 mL 2× YT media supplied with antibiotics and an overnight culture incubated at 30 °C, 250 RPM with an OD600nm of 0.072. Cells were grown at 37 °C in 50 mL conical tubes, and the cultures were induced with 0.5 mM IPTG at an OD600nm of 0.6-1.0. The 20 mL culture was then incubated at 27 °C and 250 RPM for 24 h. After 24 h, cells were harvested for protein extraction (centrifugation at 4 °C, 3000 RPM, 20 min). Cell pellets were resuspended in Zymo His-Binding buffer (Zymo Research Corporation) supplied with 0.15 mM FAD, 1 μL/mL DNase (Sigma Aldrich) and 1 mM InSolution [COMPOUND LEFT OUT] (Sigma Aldrich). The resuspended cell mixture was added to 0.5 mL of 0.1 mm glass beads (Biospec) and homogenized using a benchtop homogenizer (MP Biomedicals). Cell debris was separated from the crude extract by centrifugation at 4 °C and 15,000 RPM for 5 min. Protein purification was performed using His-Spin Protein Miniprep (Zymo Research Corporation) according to the manufacturer's instructions. The concentrations of purified protein were quantified by a Bradford assay using BSA as a standard. Purified protein was stored in aliquots with 20% (v/v) glycerol at −80 °C.
NMNH generation. NMNH generation was performed in 20 mL reaction volumes in a 50 ml conical tube containing 200 mM Tris-Cl at pH 8.0, 100 mM sodium chloride, 3 mM potassium chloride, 200 mM glucose, and 20 m MNMN^+. The reaction was initiating by spiking 500 ng of purified Bacillus subtilis glucose dehydrogenase I195R8. The reaction was incubated at 30 °C until reaction progression stopped, approximately 6 h. Reaction progression was monitored by observing the increase in light absorption at 340 nm, corresponding to the reduction of NMN^+ to NMNH. Then, the solution was filtered through a 15 kD cutoff filter to remove the protein. […] The elution step was repeated until no NMNH remained in the flow through, as monitored by light absorption at 340 nm. […]
Lp Nox Enzymatic Assays and Kinetic study with NMNH, NAD(P) H. The Lp Nox activity (see FIG. 4A) was determined by the change in light absorption at 340 nm at 37 °C in 50 mM Tris-Cl buffer pH 7.0. […] The absorbance change at 340 nm for NAD(P) H and NMNH was detected using a SpectraMax M3 microplate reader. […] Cofactor concentration over 2 mM could not be measured accurately on M3 spectrometer due to detector absorbance saturation at 340 nm.

[2] = molecular target: T2, Lactobacillus pentosus NADH oxidase (Lp Nox) variant LP-3-EP (I158S-D177W-G178E-V240L-P362H-V395L), SEQ ID NO:7 (Lactiplantibacillus pentosus, UniProt A0A0U3FIG2, D177W/G178E/I158S/P362H/V240L/V395L); assay: Lp Nox enzymatic kinetics, cofactor oxidation at 340 nm, variant LP-3-EP; type: biochemical
T2 construct: variant LP-3-EP
T2 sequence (A0A0U3FIG2 1-450 I158S/D177W/G178E/V240L/P362H/V395L): T1 sequence (A0A0U3FIG2 1-450) with I158S, D177W, G178E, V240L, P362H, V395L
Protocol: as §1
NMNH generation. NMNH generation was performed in 20 mL reaction volumes in a 50 ml conical tube containing 200 mM Tris-Cl at pH 8.0, 100 mM sodium chloride, 3 mM potassium chloride, 200 mM glucose, and 20 m MNMN^+. The reaction was initiating by spiking 500 ng of purified Bacillus subtilis glucose dehydrogenase I195R8. The reaction was incubated at 30 °C until reaction progression stopped, approximately 6 h. Reaction progression was monitored by observing the increase in light absorption at 340 nm, corresponding to the reduction of NMN^+ to NMNH. Then, the solution was filtered through a 15 kD cutoff filter to remove the protein. To purify the NMNH, the flowthrough was mixed with HPLC-grade acetonitrile to a final concentration of 70% acetonitrile, and the solution was passed through a Phenomenex Strata NH2 (2 g/12 mL, 55 μm, 70 Å) solid phase extraction column. The column was washed twice with 4 mL of 70:30 acetonitrile:water, then twice with 4 mL of 50:50 acetonitrile:water, twice with 4 mL of 30:70 acetonitrile:water, twice with 4 mL of nanopurified water, and finally twice with 4 mL of methanol. To elute the NMNH from the column, 2 mL of a solution containing 50:50 ammonium hydroxide:methanol was added to the column and incubated for 3 minutes before eluting. The elution step was repeated until no NMNH remained in the flow through, as monitored by light absorption at 340 nm. The elution fractions containing NMNH were pooled and aliquoted in 1 mL volumes into clean tubes. The solutions were dried over air and stored at −80 °C until use.
Lp Nox Enzymatic Assays and Kinetic study with NMNH, NAD(P) H. The Lp Nox activity (see FIG. 4A) was determined by the change in light absorption at 340 nm at 37 °C in 50 mM Tris-Cl buffer pH 7.0. The reactions were started by adding the purified protein to the prewarmed 37 °C assay mixture containing 0.3 mM of respective cofactor. The absorbance change at 340 nm for NAD(P) H and NMNH was detected using a SpectraMax M3 microplate reader. For kinetics parameter determination (see Table 2), cofactor concentrations were varied from 0 to 2 mM and the results were fitted to the standard Michaelis-Menten equation or Lineweaver-Burk equation to acquire catalytic efficiencies (kcat/Km) when the cofactor concentration tested could not saturate the enzyme activity or during the presence of substrate inhibition. Cofactor concentration over 2 mM could not be measured accurately on M3 spectrometer due to detector absorbance saturation at 340 nm.

Row | Compound | Km ([1]; apparent, cofactor 0 to 2 mM) [µM] | kcat ([1]; apparent, cofactor 0 to 2 mM) [s⁻¹] | kcat/Km ([1]; apparent, cofactor 0 to 2 mM) [M⁻¹ s⁻¹] | kcat/Km ([2]; role: cofactor, 50 mM Tris-HCl pH 7.0, 37 °C, estimated based on kinetics under lower cofactor concentrations before inhibition was observed) | inhibition of LP 3-EP activity by the cofactor ([2]; role: inhibitor (cofactor inhibition), above 1 mM NADH or NADPH, fits poorly with the substrate inhibition rate equation) | kcat/Km (catalytic efficiency for NMNH) ([1]; enzyme could not be saturated with the cofactor concentrations tested) [M⁻¹ s⁻¹] | kcat/Km (catalytic efficiency for NMNH) ([2]; role: cofactor, 50 mM Tris-HCl pH 7.0, 37 °C, enzyme could not be saturated with the cofactor concentrations tested) [M⁻¹ s⁻¹] | inhibition effect when NMNH was utilized ([2]; role: cofactor, NMNH as cofactor) | gain of catalytic efficiency for NMNH from LP 3 ([2]; role: cofactor, ratio of kcat/Km to LP 3) | increase of catalytic efficiency for NMNH from the wild type ([2]; role: cofactor, ratio of kcat/Km to wild type)
1 | NC(=O)C1=CN([C@@H]2O[C@H](COP(=O)(O)OP(=O)(O)OC[C@H]3O[C@@H](n4cnc5c(N)ncnc54)[C@H](OP(=O)(O)O)[C@@H]3O)[C@@H](O)[C@H]2O)C=CC1 [NADPH, nicotinamide adenine dinucleotide phosphate] | 1900 ± 200 | 18 ± 2 | 9300 ± 200 | 51 ± 3^c mM^−1s^−1 | strongly inhibited | – | – | – | – | –
2 | NC(=O)C1=CN([C@@H]2O[C@H](COP(=O)(O)O)[C@@H](O)[C@H]2O)C=CC1 [NMNH, nicotinamide mononucleotide] | – | – | – | – | – | 2300 ± 100 | 23000 ± 1000 | not seen | ~ 2.5 fold | ~ 10 fold
